Like-named read-outs stand apart in the source and are kept apart here.
Tests used:
MEK = system: MEK; set-up: method as in Lorusso et al., 2005; conditions: ref Lorusso et al., 2005; read-out: 50% inhibitory concentration (IC50); cited from earlier work
[1] = set-up: method as in Wabnitz et al., 2004; conditions: monkey; ref Wabnitz et al., 2004; cited from earlier work
[2] = set-up: method as in Wabnitz et al., 2004; conditions: rat; ref Wabnitz et al., 2004; cited from earlier work
[3] = Metabolite profiling of plasma extracts by radio-HPLC (Group 3); assay type: in vivo, rat; conditions: male plasma
Protocol: (§1) Metabolite profiling was performed by HPLC analysis according to the company’s SOP of plasma (Group 3), urine (Group 2) and feces (Group 2) samples. Briefly, for metabolite profiling and identification, radioactivity (cpm) was measured in HPLC eluent fractions that had previously been collected at 12 s intervals for the duration of the run (65 min) into 96-well Deep Well LumaPlates and dried in a centrifugal evaporator. A Microbeta2 scintillation counter was used to count each plate, with wells simultaneously counted for 2 min, after an initial 5 min delay. A subsample of plasma was analyzed (ca 2 ml) taken from individual animals to provide representative samples, for each sex, at 2, 8 and 168 h post dose (n = 6). Equal proportions of the total urine weight voided from Group 2 animals was pooled to provide representative samples for each sex at 0–6 h, 6–24 h and 24–48 h post dose (n = 6). Equal proportions of the total feces homogenate generated from the samples voided by the three rats (Group 2) were pooled to provide representative samples for each sex at 0–24 and 24–48 h post dose ([…]). Sample preparation was carried out due to the company’s SOPs (see Supplementary Methods). The extractability was ≥95.0% (95.0–100%) TRR (Total Radioactive Residue) for plasma and ≥88.3% (88.3%–91.3%) TRR for feces. As reference, a standard solution of zapnometinib (0.1 mg/ml in acetonitrile) was used. To assess HPLC method suitability, a column recovery was assessed on each representative sample (one per matrix). The recovery of radioactivity from the HPLC column was determined by collecting the column eluent, following an injection of a representative sample (one per matrix), and determining the radioactive content by submitting aliquots for LSC analysis. The results of these analyses were between 93.8%–105.1% column recoveries.
(§2) Next, radioactive metabolic components of zapnometinib in urine, plasma and feces extracts were isolated and profiled. The components were quantified by fraction collection/scintillation analysis, as appropriate to the radioactivity concentrations. Mass spectroscopy was used to propose identities of the major circulatory and excreted metabolites, and to correlate the metabolites detected in the different matrices. Components identified by LC-MS/MS were related to the quantified HPLC analysis by comparison of related radiochromatograms and comparison of elution order. Representative HPLC radiochromatograms of pooled feces extracts collected during 0–24 and 24–48 h post dose from male and female rats (which reveal the main metabolites) were qualitatively similar with some minor sex differences (Figure 3).

[4] = Metabolite profiling of pooled feces extracts by radio-HPLC (Group 2); assay type: in vivo, rat
Protocol: as §1
as §2, with “3). […]” for “3).”
times with the following solvents following the same procedure: Extract 2 – Acetonitrile/methanol 4:1 (v/v); Extract 3 – Acetonitrile/Water 1:1 (v/v). Duplicate weighed aliquots of each supernatant (ca 0.1 mL) were mixed directly with Ultima Gold scintillation cocktail for measurement of radioactivity concentrations. The extracted residue was allowed to air dry and the total weight was recorded. Duplicate weighed portions (ca 0.05g) were taken for radioassay after oxidation. The extracts were combined and concentrated under a constant stream of nitrogen gas to near dryness and reconstituted in acetonitrile/0.1% aqueous formic acid, 1:1 (v/v) by vortex mixing, sonication and centrifugation at 10000 × g for 5 min at 4°C.
The concentrates were weighed, and duplicate weighed aliquots (0.025 – 0.05 mL) taken for measurement of radioactivity to calculate recovery following concentration. An aliquot of each concentrated extract was injected into the HPLC. […]
(100 mL) in purified water (600 mL) and methanol (300 mL). After measurement of total sample weight (as appropriate), replicate portions of diluted dose solutions (ca 0.1 mL), plasma (ca 0.05 – 0.25 mL), urine (ca 0.05 – 0.25 mL), expired air trap solution (ca 1 mL) and cage wash (ca 1 mL) were mixed directly with Ultima Gold scintillation cocktail (5 mL; 15 mL for […]

SMILES	IC50 (MEK)	Renal elimination [1]	Renal elimination [2]	Amount detected in plasma by mass spectrometry [3]	Amount in pooled feces extracts ([4]; 0-24 hours, female rats)	Amount in pooled feces extracts ([4]; 0-24 hours, male rats)	Amount in pooled feces extracts ([4]; 24-48 hours, female rats)	Amount in pooled feces extracts ([4]; Total (0-48 hours), female rats)	Amount in pooled feces extracts ([4]; Total (0-48 hours), male rats)
O=C(NOCC1CC1)c1ccc(F)c(F)c1Nc1ccc(I)cc1Cl [CI-1040, 2-(2-chloro-4-iodo-phenylamino)-Ncyclopropylmethoxy-3,4-difluoro-benzamide]	[…]	< 5 % of dose	< 5 % of dose						
CC(C)[C@H](NC(=O)c1ccc(F)c(F)c1Nc1ccc(I)cc1Cl)C(=O)O [M3]				trace amounts	16.10 % Dose	4.21 % Dose	2.48 % Dose	18.58 % Dose	4.21 % Dose

Reference: publication PMC9760738, “Pharmacokinetics, absorption, distribution, metabolism and excretion of the MEK inhibitor zapnometinib in rats” (Frontiers in Pharmacology, 2022)
